Measurements as given in ChEMBL document CHEMBL3507680, “University of Dundee, Gates Library screen for HepG2 cell viability”.

Assay: Human HepG2 cell viability assay in 384 well format
Assay type: toxicity, cell-based
Set-up: dose 125 nL, time 70.5 hour; cytotoxicity at 70.5 h: concentration not given beside the values
Settings: HepG2 cells, read-out: Inhibition

SMILES	cytotoxicity at 70.5 h [%]
Cn1nc(CN2CCC(c3ccncc3)CC2)c2c(Cl)cccc21	-0.977
CC(C)c1cc(NC(CCO)c2ccccc2)n2nccc2n1 (stereo not drawn)	3.68
Cc1nc(CNC(=O)c2ccc3c(c2)nc(N2CCOCC2)n3C)cs1	-5.03
COc1cc(NC2CCN(C3CCS(=O)(=O)CC3)CC2)ncn1	-20.6
CN(CC1COc2ccccc2O1)C(=O)c1ccc(-c2cn[nH]c2)nc1 (stereo not drawn)	-2.63
CC(CCc1ccc(O)cc1)NC1CCN(C(=O)C(C)C)CC1 (stereo not drawn)	-11.4
Cc1nn(CC(=O)N2CCC3(CN(C)C(=O)O3)C2)c(=O)c2ccccc12 (stereo not drawn)	-15
COc1ccc([C@@H]2CN(C(=O)CCCc3cn[nH]c3)C[C@H]2N(C)C)cc1	9.02
CC(C)N1CCOC(CC(=O)N2CC(c3ccncc3)C2)C1 (stereo not drawn)	-2.68
O[C@@]1(CNCC2(Cn3ccnc3)CC2)CCCN2CCCC[C@@H]21	-13.1
C=C(C)COc1ccccc1C(=O)NCCc1nncn1C	25.1
CCCc1nnc(N(C)CC2CCN(CC(C)C)C2)o1 (stereo not drawn)	-1.56
O=C(O)c1ccnc(-c2ccnc(N3CCCCCC3)n2)c1	17.6
CCCC1(CO)CCCN(c2ncnc3c2c(C)nn3C)C1 (stereo not drawn)	-3.54
CC(O)C(=O)N1CCN(c2ccccc2Cl)C(=O)C1 (stereo not drawn)	17
Fc1ccc(C2(CNCC(F)F)CCOC2)cc1 (stereo not drawn)	-2.85
NC(=O)c1ccc(C2CCCN2C(=O)CCc2nc3ccccc3s2)s1 (stereo not drawn)	-1.87
O=C(c1cscn1)N1CCC(Cn2cc(-c3ccsc3)nn2)CC1	-8.02
Cc1[nH]c2c(F)cccc2c1CC(=O)N1CCCC(N)CC1 (stereo not drawn)	14.1
Cc1ccc(CNC(=O)c2ccc(S(=O)(=O)N3C[C@@H]4C[C@H]3CN4)cc2)o1	-2.7
O=C1CC2(CCN(CCCF)CC2)CN1Cc1cc(F)cc(F)c1	8.23
c1csc(CCC2CCCCN2Cc2noc(C3CC3)n2)c1 (stereo not drawn)	-13
CC(C)c1nnc2sc(CC3CCS(=O)(=O)C3)nn12 (stereo not drawn)	-7.56

SMILES	cytotoxicity at 70.5 h [%]
COc1ccc(F)c(F)c1CN1CCC2(CC1)[C@H](O)C[C@@H]2OCCN	-7.39
CCCC1COCCN1Cc1ccc(S(=O)(=O)NC)cc1 (stereo not drawn)	7.3
CCN(CC)CCCN1CCN(c2nc(C)cnc2C)CC1	-7.19
CCc1ccc(CN(C)c2cc(COC)nc3ccnn23)cc1	-2.38
CC(C)c1cccc(N2CCCC3(CCC(=O)N(C4CC4)C3)C2)n1 (stereo not drawn)	-1.84
O=C1CC2(CCN(Cc3ccc(Cl)s3)C2)C(=O)N1 (stereo not drawn)	-9.8
COCc1ncc(CN(CCN(C)C)Cc2ccc(C)s2)cn1	-4.43
CCCn1ncnc1C(C)NC(=O)CC1CCN(C(C)C)CC1 (stereo not drawn)	-4.86
Cc1ccc(N2CCC(N3C[C@@H](CN(C)C)[C@@H](CO)C3)CC2)cc1	-6.07
O=C(CC1CCc2ccccc21)N1CCC(O)(c2cccnc2)CC1 (stereo not drawn)	-9.82
O=C1O[C@@H]2CN(CCc3ccccc3)C[C@@H]2N1CCCN1CCOCC1	-3.23
O=C(COCC(F)(F)C(F)F)N1CCC2(CCCN(CC3CC3)C2=O)C1 (stereo not drawn)	-8.88
O=C(O)C(c1ccc2c(c1)OCO2)N1CCCC1 (stereo not drawn)	-0.492
Cc1nc[nH]c1C(=O)N1CCCC2(CN(C)C(=O)O2)C1 (stereo not drawn)	-0.146
COCCCC1(CO)CCCN(C(=O)c2cnc(C3CC3)nc2)C1 (stereo not drawn)	-4.81
COc1ccc(F)c(-c2cc(O)nc(N)n2)c1	-9.12
CCCN(Cc1cccnc1)Cc1ccc(C2CCCCO2)o1 (stereo not drawn)	-2.3
COCCN1CC(c2nc(CC3CCN(C)CC3)no2)CCC1=O (stereo not drawn)	-11.5
Cc1[nH]c2ccc(CNC(=O)c3ccc(CN4CCCC4)o3)cc2c1C	-7.28
O=C(O)[C@@H]1CN(C(=O)c2ccc(O)cc2)C[C@H]1c1cccc(F)c1	14.4
CCn1ccc2ccc(CN3CCCC3c3nc(C(C)C)no3)cc21 (stereo not drawn)	-10.7
CS(=O)(=O)CCN1CCC2(CCCN(C3CCOCC3)C2=O)C1 (stereo not drawn)	-5.34
CC(C)CCN1CC2(CCCN(C(=O)c3cscn3)C2)CCC1=O (stereo not drawn)	-8.72

SMILES	cytotoxicity at 70.5 h [%]
Cc1noc(C)c1CCC(=O)N1CCN(CCn2cncn2)CC1	-1.34
COc1ccc([C@@H]2CN(C(=O)CCC(F)(F)F)C[C@H]2NC(C)=O)cc1	-5.27
COc1nccc(N2CCN(Cc3ccc(C)cc3)C(=O)C2)c1C#N	1.75
COCCN1CCC(CN(CC2CCCO2)C(=O)COC)CC1 (stereo not drawn)	13.8
O=S1(=O)COCCN1Cc1ccc(Cl)c(F)c1	-6.23
O=C(c1c[nH]c(=O)c(Cl)c1)N1C[C@@H]2CC[C@H](C1)N(Cc1ccccc1)C2	-1.59
Cc1cc(C[C@@H]2COC[C@@H]2NC(=O)Cn2c(=O)oc3ccccc32)on1	1.37
CCN(CC)S(=O)(=O)N1CCCC(c2ccc(C(=O)O)cc2)C1 (stereo not drawn)	-4.81
CN(C)S(=O)(=O)N1CCC2(CCCN(Cc3ccc(F)cc3)C2=O)C1 (stereo not drawn)	-2.15
CN(C)CCCn1ccnc1C1CCCN(c2cc(N)ncn2)C1 (stereo not drawn)	-4.4
CCn1nc(CC(C)C)cc1C(=O)NCCCOC	-0.898
CN(C)C(=O)N1C[C@@H]2CC[C@H](C1)N(Cc1ccc3nsnc3c1)C2	-5.73
COc1cc(N2CCCC(c3nccn3CCN(C)C)C2)nc(N)n1 (stereo not drawn)	-8.19
Cc1ncsc1CCC(=O)NCc1cc2n(n1)CCN(C(=O)N(C)C)C2	13.9
O=C1N(CCCc2ccccc2)CCCC1(O)CNCc1ccccc1 (stereo not drawn)	-10.4
CCn1ccnc1-c1nc2cc(S(=O)(=O)N3CCCC3)ccc2n1C	-3.32
CN(C)C(=O)CN1C[C@@H]2CC[C@H](C1)N(C(=O)CCn1cncn1)C2	-12.6
COc1cccc(C)c1C(=O)N1C[C@@H](CN(C)C)[C@@H](CO)C1	-4.7
CCn1nc(C)c(CNC(=O)c2cn(CCC3CCCCN3)nn2)c1C (stereo not drawn)	-7.47
Cc1nc(CCCNC(=O)C2CC(=O)N(C3CC3)C2)sc1C (stereo not drawn)	3.65
O=C(NCCc1ccncc1)C1CCN(Cc2ccco2)CC1	10.1
COc1cccn(CC(=O)N(C)CCOc2cc(C)cc(C)c2)c1=O	2.11
CSc1ccccc1CN1CCCn2nc(CNC(=O)N(C)C)cc2C1	-1.85

SMILES	cytotoxicity at 70.5 h [%]
CCC1(CO)CCCN(c2ncccc2C#N)C1 (stereo not drawn)	15.7
O=C1CCC2(CCN(Cc3cc(F)cc(F)c3)CC2)CN1CCO	-1.2
COCc1noc(-c2ccc(N3CCCCC3CO)nc2)n1 (stereo not drawn)	-6.84
COc1cnc(N2CCC(Oc3ccccc3OC)(C(=O)O)CC2)nc1	-3.07
Nc1nccc(NCc2cc3n(n2)CCCN(C(=O)C2CCC2)C3)n1	-6.62
CSc1ncccc1C(=O)N1CCC(c2nc3c(C)cccc3[nH]2)CC1	12.8
COc1cccc(OCC2CCCN(C(=O)c3cnc(C)nc3O)C2)c1 (stereo not drawn)	-9.18
CC(C)N(C)C(=O)CN1CCCC(c2ccc(C(=O)O)cc2)C1 (stereo not drawn)	32.3
CC(CN1CCOCC1)NCc1nncn1C1CCCCC1 (stereo not drawn)	-3.01
CN(Cc1noc(C2CC2)n1)C1CCN(Cc2ccccc2C#N)C1 (stereo not drawn)	17.8
Cc1ncc(CN2CCC(N(C)Cc3noc(C4CC4)n3)C2)s1 (stereo not drawn)	19
Cc1ccc(C(CNC(=O)NCc2ccccn2)N2CCOCC2)o1 (stereo not drawn)	13.1
O=C1C(NCc2nnc3n2CCCC3)CCCN1c1ccccc1 (stereo not drawn)	-7.11
Cn1cc(CC2CCN(C(=O)NCc3cccc(C(N)=O)c3)C2)cn1 (stereo not drawn)	-13.1
CS(=O)(=O)NCC1CCCN(C(=O)COCC2CC2)C1 (stereo not drawn)	-22.4
Cc1ccccc1OCC(=O)N1CCCC(CNS(C)(=O)=O)C1 (stereo not drawn)	-5.65
O=C(NCc1nn(-c2ccccc2)c2c1CCC2)C1CC1	-3.11
CCn1ccnc1CN1CCN(CC(O)CN2CCOCC2)CC1 (stereo not drawn)	-15.7
Cn1ccnc1CN1CCN(CC(O)c2ccccc2)CC1 (stereo not drawn)	-12.2
CCc1ocnc1C(=O)N1CCCC1c1noc(C(C)C)n1 (stereo not drawn)	-11
COC(=O)NCC(=O)NCc1nn(-c2ccccc2)c2c1CCC2	-4.34
CCOc1cccc(CNC(=O)N2CCC(Cc3cnn(C)c3)C2)c1 (stereo not drawn)	-13.7
CCOc1ccccc1CNC(=O)N1CCC(Cc2cnn(C)c2)C1 (stereo not drawn)	7.83

SMILES	cytotoxicity at 70.5 h [%]
CS(=O)(=O)NC1CCCN(C(=O)COCc2ccccc2)C1 (stereo not drawn)	-10.6
CC(O)CN1CCC(CNCc2ccccc2F)CC1 (stereo not drawn)	-1.41
CC(O)CN1CCC(CNCc2ccccc2C(F)(F)F)CC1 (stereo not drawn)	13.9
CCc1ocnc1C(=O)N1CCCC1c1noc(C)n1 (stereo not drawn)	-5.19
Cc1cnn(CC2CCCN2Cc2c(C)noc2C)c1 (stereo not drawn)	-3.04
CCc1nc(C2CCCN2C(=O)c2cnns2)no1 (stereo not drawn)	-8.27
Cc1nc(C)n(C2CCCN(C(=O)c3cncnc3C)C2)n1 (stereo not drawn)	2.45
Cc1ccc(C(C)C(=O)N2CCCN(Cc3cscn3)CC2)cc1 (stereo not drawn)	5.25
O=C(Cc1ccccc1Cl)N1CCN(CC(O)COCCO)CC1 (stereo not drawn)	1.21
CCn1ccnc1CN1CCCN(C(=O)c2ccnc(C)n2)CC1	14.4
Cc1ncsc1C(=O)NCc1ccnc(N2CCN(C)CC2)c1	-7.54
CCN(CC)c1ccc(C(=O)N2CCC(c3nc(C)no3)CC2)cn1	-7.84
NC(=O)Cn1cc(NC(=O)N2CCN(c3ccccc3)CC2)cn1	-12.6
Cc1noc(C2CCN(C(=O)c3ccc(C(F)(F)F)nc3)CC2)n1	-5.24
NC(=O)Cn1cc(NC(=O)N2CCSCC2)cn1	15.3
Cc1nc(CN2CCN(C(C)c3nc(C(C)C)no3)CC2)oc1C (stereo not drawn)	-0.487
Cc1cnn(CC2CN(CC(=O)Nc3nccs3)CCO2)c1 (stereo not drawn)	-2.45
Cc1cnn(CC2CN(CC(=O)Nc3nncs3)CCO2)c1 (stereo not drawn)	-1.53
CCOCC(O)CN1CCN(C(=O)Cc2cccc(Cl)c2)CC1 (stereo not drawn)	-5.95
Cc1nc2cc(=O)[nH]n2c(C)c1CC(=O)NCc1ccc(C#N)cc1	-0.462
CNc1cc(N2CCCC2CNCc2csc(C)n2)ncn1 (stereo not drawn)	6.11
